System: synovial membrane of knee joints of rabbits
Assay: Intra-articular injection into rabbit knee joints, histological scoring of the synovial membrane after 24 hours
Format: in vivo
Conditions: for Prevention of irritation on intra-articular injection (in words): glycerol and glucitol in comparable circumstances, data not shown
Protocol: After 24 hours the rabbits were sacrificed, the joints were removed and histological studies of the synnovial membrane were carried out. Each of the following histological findings was scored 0 to 3. a. Synovial lining hyperplasia b. Presence of Fibrin c. Inflammatory infiltration d. Necrosis […]

[1] = rabbit knee, intra-articular injection of the solution itself, sacrifice 24 h after injection, sulphate
[2] = rabbit knee, intra-articular injection of the solution itself, sacrifice 24 h after injection

Molecule: CCCCCCCCCCCCOS(=O)(=O)[O-].[Na+] [0.2% SLS in saline, sodium lauryl sulphate]
- Histological score of synovial membrane (synovial lining hyperplasia, fibrin, inflammatory infiltration, necrosis, each scored 0 to 3), Mean [1]: 1.4

Molecule: CCCCCCCCCCCCOS(=O)(=O)[O-].[Na+] [0.5% SLS in saline (positive control), sodium lauryl sulphate]
- Histological score of synovial membrane (synovial lining hyperplasia, fibrin, inflammatory infiltration, necrosis, each scored 0 to 3), Mean (rabbit knee, intra-articular injection of the solution itself, sacrifice 24 h after injection, listed as 0.5% SLS in saline, sulphate): 5.8
- Histological score of synovial membrane (synovial lining hyperplasia, fibrin, inflammatory infiltration, necrosis, each scored 0 to 3), Mean [1]: 5.8

Molecule: OC[C@@H](O)[C@H](O)[C@@H](O)CO [4.5% Xylitol in distilled water, Xylitol]
- Histological score of synovial membrane (synovial lining hyperplasia, fibrin, inflammatory infiltration, necrosis, each scored 0 to 3), Mean [2]: 1.4

Molecule: OC[C@@H](O)[C@@H](O)[C@H](O)[C@H](O)CO [5.4% Mannitol in distilled water, Mannitol]
- Histological score of synovial membrane (synovial lining hyperplasia, fibrin, inflammatory infiltration, necrosis, each scored 0 to 3), Mean [2]: 3.4
- Prevention of irritation on intra-articular injection (in words) (rabbit knee): does not prevent irritation

Molecule: OC[C@@H](O)[C@@H](O)[C@H](O)[C@@H](O)CO [glucitol]
- Prevention of irritation on intra-articular injection (in words) (rabbit knee): lack of prevention of irritation

Molecule: OCC(O)CO [glycerol]
- Prevention of irritation on intra-articular injection (in words) (rabbit knee): lack of prevention of irritation

Molecule: sodium Hyaluronate [1% sodium Hyaluronate in saline]
- Histological score of synovial membrane (synovial lining hyperplasia, fibrin, inflammatory infiltration, necrosis, each scored 0 to 3), Mean (rabbit, in vivo): 1.0

Source: patent US9913808B2, “Injectable pharmaceutical compositions for the treatment of joints” (priority 2010, dated 2018)
